Assay [1] can be described thus: A cytotoxicity screen of small molecule inhibitors of the PhoP region in Salmonella typhi identified in the primary screen. [Related pubchem assays: 1850, 1864, 1985 ]. Type of assay: functional.
The target in assay [2] is Transitional endoplasmic reticulum ATPase (Homo sapiens, UniProt P55072, C522A). Description: C522A mutant p97 ATPase inhibitors, dose response, counter-screen for p97 inhibitor project, biochemical, luminescence (AID 1544). Background: Counterscreens check selectivity or assay interference.
The target in another assay is NS3 (Hepatitis C virus, UniProt A3EZJ3). The experiment in a line: PubChem AID 2173. On the set-up: species or system Hepacivirus hominis.
Assay [3] concerns the target Transitional endoplasmic reticulum ATPase (Homo sapiens, UniProt P55072). Description: p97 ATPase inhibitors, dose response, biochemical (AID 1534).
A further assay has as its system HeLa. The experiment in a line: viability loss in HeLa cells – cell-based, 24 h, cherry-picked samples, cytotoxicity control, dose response (AID 504726).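 Further: potency for cytotoxicity as loss of luminescence signal.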 To be noted: Homo sapiens. The assay is classed as functional.
The next assay concerns Salmon testes DNA. The experiment in a line: acridine orange-DNA binding displacement – biochemical, fluorescence polarization, cherry-picked samples, set 2, artefact control for KSHV LANA DNA-binding inhibitor project, dose response (AID 504727). The arrangement: species or system Salmonidae. Background: Fluorescence polarisation rises when a labelled molecule tumbles more slowly, as on binding a larger partner.

The next assay addresses T1, Protein RecA (Mycobacterium tuberculosis, UniProt P9WHJ3).
T1 sequence (P9WHJ3 whole entry): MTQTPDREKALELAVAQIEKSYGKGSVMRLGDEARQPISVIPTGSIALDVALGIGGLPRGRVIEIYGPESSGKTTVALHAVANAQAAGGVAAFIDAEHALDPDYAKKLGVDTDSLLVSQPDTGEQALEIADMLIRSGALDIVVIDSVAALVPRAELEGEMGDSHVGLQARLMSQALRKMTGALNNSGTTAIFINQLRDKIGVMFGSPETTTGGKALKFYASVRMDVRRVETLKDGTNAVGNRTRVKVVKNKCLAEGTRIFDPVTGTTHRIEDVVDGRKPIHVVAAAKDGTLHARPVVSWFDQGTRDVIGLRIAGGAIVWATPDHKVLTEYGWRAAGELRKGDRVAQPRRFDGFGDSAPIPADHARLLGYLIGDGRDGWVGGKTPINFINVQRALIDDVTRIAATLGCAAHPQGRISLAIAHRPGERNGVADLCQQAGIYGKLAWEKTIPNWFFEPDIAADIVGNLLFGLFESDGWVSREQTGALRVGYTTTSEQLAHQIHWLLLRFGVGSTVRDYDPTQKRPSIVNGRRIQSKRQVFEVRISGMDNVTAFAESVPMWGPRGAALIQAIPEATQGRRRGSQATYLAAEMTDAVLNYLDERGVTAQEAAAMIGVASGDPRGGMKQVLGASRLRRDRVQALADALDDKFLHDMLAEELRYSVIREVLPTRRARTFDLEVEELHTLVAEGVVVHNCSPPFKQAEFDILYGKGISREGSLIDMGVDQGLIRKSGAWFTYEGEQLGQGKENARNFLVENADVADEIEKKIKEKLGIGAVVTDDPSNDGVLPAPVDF
The experiment in a line: Fluorescence Cell-Free Homogeneous Dose Retest to Identify Inhibitors of RecA-Intein Splicing Activity. [Related pubchem assays (depositor defined):AID2097, AID2223, AID489010, AID492950]. The assay is classed as functional.

In assay [4] the target is T2, Histone-lysine N-methyltransferase NSD2 (Homo sapiens, UniProt O96028).
T2 sequence (O96028 whole entry): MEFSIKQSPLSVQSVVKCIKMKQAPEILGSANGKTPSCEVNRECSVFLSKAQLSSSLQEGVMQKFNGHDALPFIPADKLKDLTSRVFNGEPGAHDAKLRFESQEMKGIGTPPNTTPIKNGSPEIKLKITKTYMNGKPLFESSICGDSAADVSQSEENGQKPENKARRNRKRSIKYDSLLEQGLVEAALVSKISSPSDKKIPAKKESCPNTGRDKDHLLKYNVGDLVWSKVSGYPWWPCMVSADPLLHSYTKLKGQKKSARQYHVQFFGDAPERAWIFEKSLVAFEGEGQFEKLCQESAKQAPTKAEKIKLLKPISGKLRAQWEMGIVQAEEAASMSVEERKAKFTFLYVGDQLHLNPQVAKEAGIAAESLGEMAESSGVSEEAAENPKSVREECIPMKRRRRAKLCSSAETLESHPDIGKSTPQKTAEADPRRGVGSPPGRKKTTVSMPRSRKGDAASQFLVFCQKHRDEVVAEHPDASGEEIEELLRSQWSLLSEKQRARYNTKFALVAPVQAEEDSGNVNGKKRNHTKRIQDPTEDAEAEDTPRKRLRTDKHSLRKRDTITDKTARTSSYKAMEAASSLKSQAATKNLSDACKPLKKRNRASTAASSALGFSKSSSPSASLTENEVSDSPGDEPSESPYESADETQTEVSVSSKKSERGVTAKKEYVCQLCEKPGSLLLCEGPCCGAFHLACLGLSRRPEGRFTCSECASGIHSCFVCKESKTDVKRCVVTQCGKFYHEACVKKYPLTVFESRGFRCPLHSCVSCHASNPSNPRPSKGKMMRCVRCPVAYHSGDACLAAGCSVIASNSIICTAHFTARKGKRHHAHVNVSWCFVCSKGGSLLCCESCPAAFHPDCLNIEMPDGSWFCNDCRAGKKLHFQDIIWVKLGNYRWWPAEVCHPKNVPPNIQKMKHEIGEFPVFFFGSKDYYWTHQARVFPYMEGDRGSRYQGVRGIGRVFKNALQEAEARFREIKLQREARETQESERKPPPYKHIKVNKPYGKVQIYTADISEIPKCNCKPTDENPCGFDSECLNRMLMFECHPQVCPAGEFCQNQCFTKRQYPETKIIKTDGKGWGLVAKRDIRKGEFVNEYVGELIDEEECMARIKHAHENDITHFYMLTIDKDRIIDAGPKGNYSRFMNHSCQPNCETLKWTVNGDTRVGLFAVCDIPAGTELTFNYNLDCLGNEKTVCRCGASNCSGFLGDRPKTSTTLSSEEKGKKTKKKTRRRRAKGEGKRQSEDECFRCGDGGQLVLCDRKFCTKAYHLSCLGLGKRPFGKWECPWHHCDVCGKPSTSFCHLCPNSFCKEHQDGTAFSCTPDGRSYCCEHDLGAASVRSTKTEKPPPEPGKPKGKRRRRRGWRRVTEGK
Type of assay: biochemical.

For another assay, the target named is Protein Rev (Human immunodeficiency virus type 1 group M subtype B (isolate HXB2)(HIV-1), UniProt P04618). Description: blockers of HIV Rev/RRE RNA complex – biochemical, fluorescence polarization, HIV-1, dose response (AID 434976). The arrangement: species or system Human immunodeficiency virus 1.
Assay [5] addresses Female germline-specific tumor suppressor gld-1 (Caenorhabditis elegans, UniProt Q17339). Description: blockers of GLD-1/TGE RNA complex formation – biochemical, fluorescence polarization, C. elegans, dose response (AID 2802).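 Further: fluorescence polarization of labeled TGE RNA bound by purified gld-1 protein.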

Activity calls are given as the source filed them.

Protein Rev, sequence (P04618 whole entry): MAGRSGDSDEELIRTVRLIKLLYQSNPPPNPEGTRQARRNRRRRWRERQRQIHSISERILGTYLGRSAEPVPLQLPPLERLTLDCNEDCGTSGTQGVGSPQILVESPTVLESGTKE
Transitional endoplasmic reticulum ATPase (Homo sapiens, UniProt P55072, C522A), sequence (P55072 2-806 C522A limits assumed): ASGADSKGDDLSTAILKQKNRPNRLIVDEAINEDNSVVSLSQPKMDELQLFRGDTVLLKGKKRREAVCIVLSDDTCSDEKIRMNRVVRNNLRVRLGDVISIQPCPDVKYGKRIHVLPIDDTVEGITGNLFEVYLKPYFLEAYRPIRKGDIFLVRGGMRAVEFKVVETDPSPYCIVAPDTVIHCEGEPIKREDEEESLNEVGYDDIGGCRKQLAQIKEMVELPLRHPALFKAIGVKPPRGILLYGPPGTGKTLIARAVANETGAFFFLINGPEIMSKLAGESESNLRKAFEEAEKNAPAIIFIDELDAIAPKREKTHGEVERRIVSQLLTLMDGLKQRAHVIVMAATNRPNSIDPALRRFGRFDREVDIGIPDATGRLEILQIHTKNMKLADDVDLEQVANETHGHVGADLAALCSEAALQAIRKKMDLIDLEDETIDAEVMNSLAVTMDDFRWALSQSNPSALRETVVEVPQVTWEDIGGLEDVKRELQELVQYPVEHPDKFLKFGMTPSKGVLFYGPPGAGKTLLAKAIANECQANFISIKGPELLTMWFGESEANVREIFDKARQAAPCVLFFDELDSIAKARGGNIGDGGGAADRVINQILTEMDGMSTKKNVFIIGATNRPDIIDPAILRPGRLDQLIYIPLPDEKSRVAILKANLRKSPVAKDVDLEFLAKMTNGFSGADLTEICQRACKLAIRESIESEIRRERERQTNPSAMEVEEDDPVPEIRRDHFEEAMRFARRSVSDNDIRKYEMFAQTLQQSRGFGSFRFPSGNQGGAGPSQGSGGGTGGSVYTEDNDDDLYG
Transitional endoplasmic reticulum ATPase (Homo sapiens, UniProt P55072), sequence (P55072 whole entry): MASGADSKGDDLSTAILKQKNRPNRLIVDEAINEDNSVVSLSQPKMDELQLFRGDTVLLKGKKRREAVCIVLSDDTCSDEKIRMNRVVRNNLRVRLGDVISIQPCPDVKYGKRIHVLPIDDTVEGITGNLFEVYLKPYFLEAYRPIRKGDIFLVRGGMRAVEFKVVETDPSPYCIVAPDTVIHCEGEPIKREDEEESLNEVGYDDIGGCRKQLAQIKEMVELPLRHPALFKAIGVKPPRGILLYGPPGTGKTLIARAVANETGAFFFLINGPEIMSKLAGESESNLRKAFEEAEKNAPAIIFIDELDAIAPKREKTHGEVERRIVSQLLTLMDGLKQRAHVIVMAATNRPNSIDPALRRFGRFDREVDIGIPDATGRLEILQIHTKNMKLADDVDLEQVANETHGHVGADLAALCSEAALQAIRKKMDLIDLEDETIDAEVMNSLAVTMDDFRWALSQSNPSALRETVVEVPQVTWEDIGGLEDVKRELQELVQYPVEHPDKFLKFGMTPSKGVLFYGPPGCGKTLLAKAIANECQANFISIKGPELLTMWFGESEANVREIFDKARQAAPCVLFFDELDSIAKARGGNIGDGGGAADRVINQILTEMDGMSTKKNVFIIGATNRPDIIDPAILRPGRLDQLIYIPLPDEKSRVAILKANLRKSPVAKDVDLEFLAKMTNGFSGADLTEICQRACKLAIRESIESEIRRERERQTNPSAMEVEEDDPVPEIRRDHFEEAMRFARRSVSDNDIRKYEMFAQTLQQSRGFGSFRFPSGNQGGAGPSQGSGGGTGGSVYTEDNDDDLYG
NS3, sequence (A3EZJ3 whole entry): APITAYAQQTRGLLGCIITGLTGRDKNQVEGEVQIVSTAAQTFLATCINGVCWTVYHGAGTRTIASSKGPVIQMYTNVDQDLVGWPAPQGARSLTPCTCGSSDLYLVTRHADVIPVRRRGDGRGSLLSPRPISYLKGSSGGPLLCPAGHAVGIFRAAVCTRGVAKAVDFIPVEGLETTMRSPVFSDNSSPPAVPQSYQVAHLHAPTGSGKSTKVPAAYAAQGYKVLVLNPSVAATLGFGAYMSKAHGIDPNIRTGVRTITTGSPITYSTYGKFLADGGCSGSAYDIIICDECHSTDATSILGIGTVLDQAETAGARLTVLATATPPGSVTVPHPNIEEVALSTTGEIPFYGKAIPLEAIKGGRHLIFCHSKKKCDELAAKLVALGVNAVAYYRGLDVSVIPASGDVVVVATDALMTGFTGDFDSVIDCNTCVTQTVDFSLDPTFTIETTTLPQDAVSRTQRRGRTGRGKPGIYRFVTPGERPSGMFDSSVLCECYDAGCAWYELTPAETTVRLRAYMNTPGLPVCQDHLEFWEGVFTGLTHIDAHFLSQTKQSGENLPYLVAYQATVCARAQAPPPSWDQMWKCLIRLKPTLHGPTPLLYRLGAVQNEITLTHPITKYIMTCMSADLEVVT
Female germline-specific tumor suppressor gld-1, sequence (Q17339 whole entry): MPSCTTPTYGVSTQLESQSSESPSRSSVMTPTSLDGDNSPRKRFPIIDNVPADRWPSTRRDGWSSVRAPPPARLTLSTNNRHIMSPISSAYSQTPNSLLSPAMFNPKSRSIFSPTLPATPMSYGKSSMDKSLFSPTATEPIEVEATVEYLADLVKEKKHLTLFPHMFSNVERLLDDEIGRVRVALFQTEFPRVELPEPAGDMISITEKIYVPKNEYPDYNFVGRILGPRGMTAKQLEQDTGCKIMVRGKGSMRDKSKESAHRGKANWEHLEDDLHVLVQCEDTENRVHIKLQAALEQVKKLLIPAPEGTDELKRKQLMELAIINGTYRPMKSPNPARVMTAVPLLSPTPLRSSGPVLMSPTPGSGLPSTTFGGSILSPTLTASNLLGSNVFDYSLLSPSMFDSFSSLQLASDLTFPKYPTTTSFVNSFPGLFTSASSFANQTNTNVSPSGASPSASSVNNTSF

In general, EC50 refers to the midpoint of the concentration-response curve. One may read the IC50 as the concentration at which inhibition is half-maximal. The AC50 is the midpoint of the concentration-response curve, whichever way the signal moves. As to `CCCCn1c(NS(=O)(=O)c2ccc(C)cc2)c(S(=O)(=O)c2ccccc2)c2nc3ccccc3nc21`, the EC50 in assay [1] was > 50 µM (active); on Protein RecA, > 380 µM (inconclusive). Further, the results for the IC50 (in [2]; at NS3; in assay [3]) were > 50 µM (not active), 0.662 µM (active) and > 50 µM (not active), respectively. For the same compound, the AC50 is 313 µM (active) with HeLa, 43.7 µM (active) with Salmon testes DNA and 12.2 µM (active) in [4].
`Nc1cccc2c1C(=O)N(Cc1cccc(Cl)c1)C2=O`: the IC50 against Protein Rev was 17.9 µM (not active); in [5] it was 4.97 µM (active).

Values taken from ChEMBL document CHEMBL1201862, “PubChem BioAssay data set” (2004).
